Measurements: publication PMC6270726 (Molecules, 2014)
“And” between values parts separate entries of the source, which are not always exact repeats. Equal values may be shown once. Read-outs that look alike come from different tables or passages of the source.

Assays:
SaSDH [1] = target: T1, SaSDH (Staphylococcus aureus, UniProt Q6GGA5); experiment: SaSDH kinetic parameters for substrates; format: biochemical, methicillin-resistant S. aureus; conditions: substrate of SaSDH; for Km: 25 °C, random bi-bi fit; for Vmax: saturating levels of both substrates; for Kd: read-out: Kia (dissociation constant)
T1 construct: 6His-tag (N); made in house; host or cells: E. coli BL21(DE3)pLysS
T1 sequence (Q6GGA5 1-268): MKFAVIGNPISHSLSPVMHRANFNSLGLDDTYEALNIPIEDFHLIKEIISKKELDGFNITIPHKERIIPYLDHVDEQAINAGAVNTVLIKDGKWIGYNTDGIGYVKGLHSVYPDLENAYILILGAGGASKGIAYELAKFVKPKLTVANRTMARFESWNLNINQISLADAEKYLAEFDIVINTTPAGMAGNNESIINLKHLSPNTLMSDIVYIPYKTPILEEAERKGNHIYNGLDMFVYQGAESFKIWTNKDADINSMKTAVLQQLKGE
Protocol: Data were fitted to several models of bi-substrate reactions, all of which were analyzed using SigmaPlot Enzyme Kinetics Module v1.3. […] These were used to derive the turnover number (Kcat) and Kcat/Km.
(§1) Enzyme activity was measured spectrophotometrically at 25 °C at 340 nm, following NADPH generation (ε = 6.19 × 10^3 M^−1 cm^−1). The reaction mixture contained buffer A plus 1 mM SHK, 1 mM NADP^+, and 50 ng of SaSDH.
The data were linearized by the double-reciprocal transformation of Lineweaver and Burk. […] The inversion of the data matrix allowed the determination of the dissociation constant for NADP^+.

SaSDH [2] = target: T1, SaSDH; experiment: SaSDH inhibition assays (single concentration and inhibition kinetics); format: biochemical; conditions: for inhibition at 200 µM: inhibition of SaSDH activity, compound at 200 µM; for IC50: i0.5 at 400 μM of substrate, 400 μM, 50% inhibition concentration; for Pattern (inhibition mechanism): Cornish-Bowden plot
Protocol: Once the model was built, a rigid body docking procedure for virtual screening with a library of small molecules was performed. Because the enzyme is absent in humans, we selected the substrate (SHK) binding site as the target for virtual screening (Figure 3A). From the one thousand small molecules studied, a database of 38,355 poses was generated. The one hundred molecules with the highest binding energies were selected, and the capacities of these molecules to inhibit SaSDH were assessed. Inhibition assays using a concentration of 200 µM of the latter molecules were performed.
In order to study the type of inhibition of compounds on SaSDH, pharmacological and kinetic parameters (i0.5, Kic and Kiu) were determined at various concentrations of these compounds, using SHK and NADP^+ respectively, as substrates. In Figure 4, the plots of reciprocal rate multiplied by the substrate concentrations (S/v) versus inhibitor concentration in the presence of SHK and NADP^+ are shown. The intercept of the extrapolated line on the [i] axis, that corresponds to each compound concentration, is ‒i0.5. This provided a single and accurate way of estimating i0.5, which is important if it is to be used to calculate the inhibition constant.
as §1
The data were fitted to equations for competitive, uncompetitive, non-competitive and mixed inhibition, respectively, using the kinetic module of SigmaPlot program v12.3. All experiments were repeated at least twice.
The 50% inhibition concentrations (i0.5) of compounds against SaSDH were determined and analyzed by fitting to [Equation (2)]. The inhibition mechanism and inhibition constant (Kic and Kiu) were studied by fitting the inhibition data to [Equation (3)]: [drawing 12] (2) [drawing 13] (3)
Kic is the inhibition constant derived from the intercepts, whereas Kiu is the constant derived from the slope of 1/i0.5 vs v/V plots.

[3] = Kic, substrate shikimate, inhibitor binding to the substrate site
[4] = Kiu, substrate NADP^+, inhibitor binding to enzyme-substrate complex

**Q.** Which Kcat (SaSDH [1]) does the source give for NC(=O)c1ccc[n+]([C@@H]2O[C@H](COP(=O)([O-])OP(=O)(O)OC[C@H]3O[C@@H](n4cnc5c(N)ncnc54)[C@H](OP(=O)(O)O)[C@@H]3O)[C@@H](O)[C@H]2O)c1 [NADP^+] here?
**A.** The Kcat was 146 s⁻¹ and 146.16 s⁻¹.

**Q.** What about the Km (SaSDH [1]) of the same compound?
**A.** Its Km is 42.6 ± 9.9 µM.

**Q.** And the Vmax (SaSDH [1])?
**A.** Its Vmax is 251 µmol/min/mg and 251.41 ± 7.2 µmol/min/mg.

**Q.** And the Kd (SaSDH [1])?
**A.** Its Kd is 21 µM.

**Q.** With O=C(O)C1=C[C@@H](O)[C@@H](O)[C@H](O)C1 [Shikimate, shikimate] as the compound, how does the Km (SaSDH [1]) read?
**A.** Its Km is 37.5 ± 3.7 µM.

**Q.** What about the Vmax (SaSDH [1]) of the same compound?
**A.** Its Vmax is 233.6 ± 1.5 µmol/min/mg.

**Q.** And the Vmax (SaSDH [1]; listed as SHK)?
**A.** The Vmax was 233 µmol/min/mg.

**Q.** And the Kd (SaSDH [1]; listed as SHK)?
**A.** Its Kd is 21.2 µM.

**Q.** What about the Kd (SaSDH [1]) of the same compound?
**A.** The Kd was 21.2 µM.

**Q.** For COC(=O)c1sc2ccccc2c1O [compound 62], which inhibition at 200 µM (SaSDH [2]) is on record?
**A.** The inhibition at 200 µM was 33%.

**Q.** For O=C(O)c1ccc(-c2cccs2)s1 [compound 238, 2,2'-bithiophene-5-carboxylic acid], which Ki (SaSDH [2]; [3]) is on record?
**A.** The Ki was 9.53 µM.

**Q.** And the Ki (SaSDH [2]; [4])?
**A.** Its Ki is 48.3 µM.

**Q.** What about the IC50 (SaSDH [2]; substrate NADP^+) of the same compound?
**A.** The IC50 was 108 µM.

**Q.** What about the IC50 (SaSDH [2]; substrate shikimate) of the same compound?
**A.** The IC50 was 123 µM.

**Q.** What about the inhibition at 200 µM (SaSDH [2]) of the same compound?
**A.** Its inhibition at 200 µM is 87%.

**Q.** And the “Pattern (inhibition mechanism)” value (SaSDH [2]; with respect to NADP^+)?
**A.** Its value is “Uncompetitive”.

**Q.** What about the “Pattern (inhibition mechanism)” value (SaSDH [2]; with respect to shikimate) of the same compound?
**A.** The value was “Competitive”.

**Q.** OCC1COc2ccccc2C1 (stereo not drawn) [compound 291] was tested. Which inhibition at 200 µM (SaSDH [2]) did it give?
**A.** Its inhibition at 200 µM is 31%.

**Q.** With O=C(O)c1ccc(CN2CCOCC2)cc1 [compound 306] as the compound, how does the inhibition at 200 µM (SaSDH [2]) read?
**A.** The inhibition at 200 µM was 31%.

**Q.** For CN(C)CCOc1ccccc1CO [compound 463], which inhibition at 200 µM (SaSDH [2]) is on record?
**A.** The inhibition at 200 µM was 45%.

**Q.** How did the inhibition at 200 µM (SaSDH [2]) turn out when CN(CCO)c1cc(C(F)(F)F)nc2ccccc12 [compound 626] was run?
**A.** The inhibition at 200 µM was 49%.

**Q.** For CCCCC#Cc1ccc(C(=O)O)o1 [compound 637], which inhibition at 200 µM (SaSDH [2]) is on record?
**A.** Its inhibition at 200 µM is 29%.

**Q.** How did the inhibition at 200 µM (SaSDH [2]) turn out when O=C(O)c1csc(-c2ccc(C(F)(F)F)cc2)n1 [compound 692] was run?
**A.** Its inhibition at 200 µM is 31%.

**Q.** For Cc1c(O)ccc2c1OC(C)(C)CC2=O [compound 766, 7-hydroxy-2,2,8-trimethyl-2,3-dihydro-4H-chromen-4-one], which Ki (SaSDH [2]; [3]) is on record?
**A.** Its Ki is 19.7 µM and 19.8 µM.

**Q.** And the Ki (SaSDH [2]; [4])?
**A.** Its Ki is 11.3 µM.

**Q.** What about the IC50 (SaSDH [2]; substrate NADP^+) of the same compound?
**A.** The IC50 was 564 µM.

**Q.** And the IC50 (SaSDH [2]; substrate shikimate)?
**A.** The IC50 was 343 µM.

**Q.** And the inhibition at 200 µM (SaSDH [2])?
**A.** The inhibition at 200 µM was 87%.

**Q.** What about the “Pattern (inhibition mechanism)” value (SaSDH [2]; with respect to NADP^+) of the same compound?
**A.** The value was “Uncompetitive”.

**Q.** And the “Pattern (inhibition mechanism)” value (SaSDH [2]; with respect to shikimate)?
**A.** The value was “Competitive”.

**Q.** Which Ki (SaSDH [2]; Kic, substrate NADP^+, inhibitor binding to the substrate site) does the source give for O=C1COc2cc(O)ccc21 [compound 894, 6-hydroxy-2,3-dihydrobenzo[b]furan-3-one] here?
**A.** Its Ki is 901 µM.

**Q.** What about the Ki (SaSDH [2]; [3]) of the same compound?
**A.** Its Ki is 58.3 µM.

**Q.** And the Ki (SaSDH [2]; [4])?
**A.** The Ki was 5.2 µM.

**Q.** What about the Ki (SaSDH [2]; Kiu, substrate shikimate, inhibitor binding to enzyme-substrate complex) of the same compound?
**A.** The Ki was 1470 µM.

**Q.** And the IC50 (SaSDH [2]; substrate NADP^+)?
**A.** The IC50 was 614 µM.

**Q.** What about the IC50 (SaSDH [2]; substrate shikimate) of the same compound?
**A.** Its IC50 is 143 µM.

**Q.** And the inhibition at 200 µM (SaSDH [2])?
**A.** Its inhibition at 200 µM is 99%.

**Q.** What about the “Pattern (inhibition mechanism)” value (SaSDH [2]; with respect to NADP^+) of the same compound?
**A.** Its value is “Mixed-uncompetitive”.

**Q.** And the “Pattern (inhibition mechanism)” value (SaSDH [2]; with respect to shikimate)?
**A.** Its value is “Mixed-competitive”.
